Test results published in article PMC11495047 (Journal of Virology, 2024).
pIC50: −log10 of the molar value. Where two headings read alike, the source gives them in different places.

Experiments:
rCedV = test: microbe, parasite or virus in culture; assay type: cell-based
rNiV = test: microbe, parasite or virus in culture; assay type: cell-based
[1] = target: CedV vRdRp (rCedV TC-tr minigenome) (Cedar virus, UniProt J7GXK9); assay type: cell-based
[2] = target: NiV vRdRp (rNiV TC-tr minigenome) (Nipah virus, UniProt Q997F0)
[3] = target: GhV vRdRp (rGhV TC-tr minigenome) (Ghana virus, UniProt H9M6P4); assay type: cell-based
[4] = in vivo; cited from earlier work

In the case of O=c1ccn([C@@H]2O[C@](F)(CO)[C@@H](O)[C@H]2O)c(=O)[nH]1 [EIDD-2749, 4′-Fluorouridine], the pIC50 (rCedV; Cedar virus, BSR-T7/5, 24 h) was 6.15, the pIC50 (rNiV) was 5.54 and the pIC50 (rNiV; Henipavirus nipahense, BHK) was 5.59. It also gave a pIC50 [1] of 5.68.

In the case of NC(=O)c1c(F)cccc1-c1cccc2cnccc12 [GHP-88309], the “susceptibility of rNiV TC-tr minigenome” value [2] was “no susceptibility”, the pIC50 [3] was 5.77 and the pIC50 (rCedV; read-out: IC50) was 5.80. The oral bioavailability [4] was “high oral bioavailability” and the pIC50 ([1]; read-out: IC50) was 5.24.
